Patent US20210181179A1, “DIAGNOSIS AND TREATMENT OF IMMUNOTHERAPY-INDUCED NEUROTOXICITY” (MEMORIAL SLOAN KETTERING CANCER CENTER, priority 2018, published 2021)

What was measured:
THP-1 (monocyte) = assay: Net production of TRP metabolites in media samples, THP-1; assay type: cell-based
KARPAS231 (B-ALL) = assay: Net production of TRP metabolites in media samples, KARPAS231; assay type: cell-based
SUP-B15 (B-ALL) = assay: Net production of TRP metabolites in media samples, SUP-B15; assay type: cell-based
CCF-STTG1 (astrocytoma) = assay: Net production of TRP metabolites in media samples, CCF-STTG1; assay type: cell-based, human
Source text: (§1) Under physiological conditions in the brain, kynurenine metabolism is driven by microglial cells and astrocytes with preferential production of QUIN and KA respectively. […] This may have been due to T cells producing cytokines and/or intermediate metabolites that are further metabolized to QUIN by the cells. In order to identify specific factors that may lead to tryptophan-kynurenine pathway up-regulation for QUIN production, we tested a panel of cytokine and chemokines implicated in NTX and CRS. […] We initially evaluated the panel of the select factors individually (FIGS. 16 A-B). We selected several cytokines based on their effect on rate-limiting enzymes for QUIN production. These included IFNγ, TNF, […], CXCL10 and […]. These enzymes were selected based on their regulation of key enzymes, KMO and KYNU, which may lead to supraphysiological accumulation of QUIN. These factors were further evaluated, individually or in combination, on astrocytoma, microglial, and primary monocyte-derived macrophages for mRNA levels of kynurenine pathway enzymes and kynurenine metabolites production (FIG. 17).

BV173 (B-ALL) = assay: Net production of TRP metabolites in media samples, BV173; assay type: cell-based
DOAY (medulloblastoma) = assay: Net production of TRP metabolites in media samples, DOAY; assay type: cell-based
HCN2 (cortical neuron) = assay: Net production of TRP metabolites in media samples, HCN2; assay type: cell-based
ALL3.1 (B-ALL) = assay: Net production of TRP metabolites in media samples, ALL3.1; assay type: cell-based
RS4; 11 (B-ALL) = assay: Net production of TRP metabolites in media samples, RS4; 11; assay type: cell-based
HMC3 (microglia) = assay: Net production of TRP metabolites in media samples, HMC3; assay type: cell-based, human
Source text: as §1

CCRF-SB (B-ALL) = assay: Net production of TRP metabolites in media samples, CCRF-SB; assay type: cell-based

Substance: Il6: cytokine
- Net production of TRP metabolites in media samples: 3-HK (THP-1 (monocyte)): 0.5 ± 1.2
- Net production of TRP metabolites in media samples: KA (THP-1 (monocyte)): −6.74 ± 6.2
- Net production of TRP metabolites in media samples: KYN (THP-1 (monocyte)): 176.36 ± 33
- Net production of TRP metabolites in media samples: QUIN (THP-1 (monocyte)): −5.14 ± 52.9
- Net production of TRP metabolites in media samples: 3-HK (KARPAS231 (B-ALL)): 1.48 ± 2.2
- Net production of TRP metabolites in media samples: HAA (KARPAS231 (B-ALL)): 8.68 ± 1.5
- Net production of TRP metabolites in media samples: KA (KARPAS231 (B-ALL)): −7.58 ± 4.2
- Net production of TRP metabolites in media samples: KYN (KARPAS231 (B-ALL)): −77.44 ± 27.4
- Net production of TRP metabolites in media samples: QUIN (KARPAS231 (B-ALL)): −37.78 ± 29.5
- Net production of TRP metabolites in media samples: 3-HK (SUP-B15 (B-ALL)): 16.58 ± 13.5
- Net production of TRP metabolites in media samples: HAA (SUP-B15 (B-ALL)): 6.44 ± 0.8
- Net production of TRP metabolites in media samples: KA (SUP-B15 (B-ALL)): −6.4 ± 3
- Net production of TRP metabolites in media samples: KYN (SUP-B15 (B-ALL)): 309 ± 182
- Net production of TRP metabolites in media samples: QUIN (SUP-B15 (B-ALL)): −65.6 ± 16^
- Net production of TRP metabolites in media samples: 3-HK (CCF-STTG1 (astrocytoma)): −8.16 ± 2.2
- Net production of TRP metabolites in media samples: HAA (CCF-STTG1 (astrocytoma)): 11 ± 0.4
- Net production of TRP metabolites in media samples: KA (CCF-STTG1 (astrocytoma)): 5.16 ± 1.1
- Net production of TRP metabolites in media samples: KYN (CCF-STTG1 (astrocytoma)): 4385.94 ± 43.3
- Net production of TRP metabolites in media samples: QUIN (CCF-STTG1 (astrocytoma)): 17.06 ± 11^
- Net production of TRP metabolites in media samples: 3-HK (BV173 (B-ALL)): 12.32 ± 11.8
- Net production of TRP metabolites in media samples: KA (BV173 (B-ALL)): −3 ± 3
- Net production of TRP metabolites in media samples: KYN (BV173 (B-ALL)): 244.92 ± 172.4
- Net production of TRP metabolites in media samples: QUIN (BV173 (B-ALL)): 13.06 ± 15.6
- Net production of TRP metabolites in media samples: 3-HK (DOAY (medulloblastoma)): −11.68 ± 1.2
- Net production of TRP metabolites in media samples: HAA (DOAY (medulloblastoma)): 11.14 ± 0.8
- Net production of TRP metabolites in media samples: KA (DOAY (medulloblastoma)): 6.16 ± 4.2
- Net production of TRP metabolites in media samples: KYN (DOAY (medulloblastoma)): 41.5 ± 21.6
- Net production of TRP metabolites in media samples: QUIN (DOAY (medulloblastoma)): 29.66 ± 29.4
- Net production of TRP metabolites in media samples: 3-HK (HCN2 (cortical neuron)): 4.96 ± 0.8
- Net production of TRP metabolites in media samples: HAA (HCN2 (cortical neuron)): 5.48 ± 0.8
- Net production of TRP metabolites in media samples: KA (HCN2 (cortical neuron)): 0.86 ± 2.1
- Net production of TRP metabolites in media samples: KYN (HCN2 (cortical neuron)): −2.08 ± 19^
- Net production of TRP metabolites in media samples: QUIN (HCN2 (cortical neuron)): 0.94 ± 12.9
- Net production of TRP metabolites in media samples: 3-HK (ALL3.1 (B-ALL)): 1.48 ± 5.3
- Net production of TRP metabolites in media samples: KA (ALL3.1 (B-ALL)): −2.36 ± 6^
- Net production of TRP metabolites in media samples: KYN (ALL3.1 (B-ALL)): 95.16 ± 123.3
- Net production of TRP metabolites in media samples: QUIN (ALL3.1 (B-ALL)): 8.66 ± 36.5
- Net production of TRP metabolites in media samples: 3-HK (RS4; 11 (B-ALL)): −1.36 ± 1.1
- Net production of TRP metabolites in media samples: KA (RS4; 11 (B-ALL)): −6.52 ± 2.3
- Net production of TRP metabolites in media samples: KYN (RS4; 11 (B-ALL)): −3.36 ± 38.7
- Net production of TRP metabolites in media samples: QUIN (RS4; 11 (B-ALL)): 16.28 ± 63.8
- Net production of TRP metabolites in media samples: 3-HK (HMC3 (microglia)): 8.44 ± 18
- Net production of TRP metabolites in media samples: HAA (HMC3 (microglia)): 0.12 ± 2.4
- Net production of TRP metabolites in media samples: KA (HMC3 (microglia)): 6.3 ± 3.8
- Net production of TRP metabolites in media samples: KYN (HMC3 (microglia)): 545.08 ± 313^
- Net production of TRP metabolites in media samples: QUIN (HMC3 (microglia)): 61.04 ± 23.7
- Net production of TRP metabolites in media samples: 3-HK (CCRF-SB (B-ALL)): 27.64 ± 22.5
- Net production of TRP metabolites in media samples: HAA (CCRF-SB (B-ALL)): 9.34 ± 2.1
- Net production of TRP metabolites in media samples: KA (CCRF-SB (B-ALL)): −6.88 ± 1.5
- Net production of TRP metabolites in media samples: KYN (CCRF-SB (B-ALL)): 438.12 ± 308.6
- Net production of TRP metabolites in media samples: QUIN (CCRF-SB (B-ALL)): −51.14 ± 13 ^

Substance: TNFα
- Net production of TRP metabolites in media samples: 3-HK (THP-1 (monocyte)): 0.82 ± 1.5
- Net production of TRP metabolites in media samples: KA (THP-1 (monocyte)): −9.9 ± 5
- Net production of TRP metabolites in media samples: KYN (THP-1 (monocyte)): 298.62 ± 61.8
- Net production of TRP metabolites in media samples: QUIN (THP-1 (monocyte)): 16.24 ± 51.4
- Net production of TRP metabolites in media samples: 3-HK (KARPAS231 (B-ALL)): 4.94 ± 3.4
- Net production of TRP metabolites in media samples: HAA (KARPAS231 (B-ALL)): 14.18 ± 4.6
- Net production of TRP metabolites in media samples: KA (KARPAS231 (B-ALL)): −7.72 ± 36.9
- Net production of TRP metabolites in media samples: KYN (KARPAS231 (B-ALL)): −72.84 ± 36.9
- Net production of TRP metabolites in media samples: QUIN (KARPAS231 (B-ALL)): −44.96 ± 36.3
- Net production of TRP metabolites in media samples: 3-HK (SUP-B15 (B-ALL)): 17.56 ± 14^
- Net production of TRP metabolites in media samples: HAA (SUP-B15 (B-ALL)): 6.58 ± 0.8
- Net production of TRP metabolites in media samples: KA (SUP-B15 (B-ALL)): −9.16 ± 3^
- Net production of TRP metabolites in media samples: KYN (SUP-B15 (B-ALL)): 303.8 ± 191
- Net production of TRP metabolites in media samples: QUIN (SUP-B15 (B-ALL)): −67.3 ± 23^
- Net production of TRP metabolites in media samples: 3-HK (CCF-STTG1 (astrocytoma)): −9.8 ± 2.6
- Net production of TRP metabolites in media samples: HAA (CCF-STTG1 (astrocytoma)): 10.74 ± 0.9
- Net production of TRP metabolites in media samples: KA (CCF-STTG1 (astrocytoma)): 1.36 ± 0.5
- Net production of TRP metabolites in media samples: KYN (CCF-STTG1 (astrocytoma)): 2853.38 ± 129.6
- Net production of TRP metabolites in media samples: QUIN (CCF-STTG1 (astrocytoma)): 12.92 ± 4
- Net production of TRP metabolites in media samples: 3-HK (BV173 (B-ALL)): 10.36 ± 9.9
- Net production of TRP metabolites in media samples: KA (BV173 (B-ALL)): −3.16 ± 2.1
- Net production of TRP metabolites in media samples: KYN (BV173 (B-ALL)): 216.84 ± 141.1 ™
- Net production of TRP metabolites in media samples: QUIN (BV173 (B-ALL)): −8.44 ± 48.4
- Net production of TRP metabolites in media samples: 3-HK (DOAY (medulloblastoma)): −8.84 ± 1.2
- Net production of TRP metabolites in media samples: HAA (DOAY (medulloblastoma)): 10.14 ± 0.8
- Net production of TRP metabolites in media samples: KA (DOAY (medulloblastoma)): 4.52 ± 0.7
- Net production of TRP metabolites in media samples: KYN (DOAY (medulloblastoma)): 35.94 ± 12.9
- Net production of TRP metabolites in media samples: QUIN (DOAY (medulloblastoma)): 19.86 ± 7.1
- Net production of TRP metabolites in media samples: 3-HK (HCN2 (cortical neuron)): 4.82 ± 1.9
- Net production of TRP metabolites in media samples: HAA (HCN2 (cortical neuron)): 4.52 ± 0.3
- Net production of TRP metabolites in media samples: KA (HCN2 (cortical neuron)): 1.56 ± 1.5
- Net production of TRP metabolites in media samples: KYN (HCN2 (cortical neuron)): 5.4 ± 10
- Net production of TRP metabolites in media samples: QUIN (HCN2 (cortical neuron)): 8.44 ± 12.2
- Net production of TRP metabolites in media samples: 3-HK (ALL3.1 (B-ALL)): 6.26 ± 7.3
- Net production of TRP metabolites in media samples: KA (ALL3.1 (B-ALL)): −4.56 ± 5.5
- Net production of TRP metabolites in media samples: KYN (ALL3.1 (B-ALL)): 76.98 ± 139.6
- Net production of TRP metabolites in media samples: QUIN (ALL3.1 (B-ALL)): −13.1 ± 32.3
- Net production of TRP metabolites in media samples: 3-HK (RS4; 11 (B-ALL)): −0.34 ± 1.9
- Net production of TRP metabolites in media samples: KA (RS4; 11 (B-ALL)): −5.46 ± 5.7
- Net production of TRP metabolites in media samples: KYN (RS4; 11 (B-ALL)): 4.38 ± 25.2
- Net production of TRP metabolites in media samples: QUIN (RS4; 11 (B-ALL)): 42.26 ± 39^
- Net production of TRP metabolites in media samples: 3-HK (HMC3 (microglia)): 7.44 ± 18
- Net production of TRP metabolites in media samples: HAA (HMC3 (microglia)): −2.14 ± 0.45
- Net production of TRP metabolites in media samples: KA (HMC3 (microglia)): 3.38 ± 2.9
- Net production of TRP metabolites in media samples: KYN (HMC3 (microglia)): 506.02 ± 251^
- Net production of TRP metabolites in media samples: QUIN (HMC3 (microglia)): 52.84 ± 27.6
- Net production of TRP metabolites in media samples: 3-HK (CCRF-SB (B-ALL)): 28.96 ± 22.5
- Net production of TRP metabolites in media samples: HAA (CCRF-SB (B-ALL)): 11.34 ± 3.9
- Net production of TRP metabolites in media samples: KA (CCRF-SB (B-ALL)): −9.3 ± 4.7
- Net production of TRP metabolites in media samples: KYN (CCRF-SB (B-ALL)): 361.62 ± 256.4
- Net production of TRP metabolites in media samples: QUIN (CCRF-SB (B-ALL)): −70.3 ± 30.4
